Measured values taken from publication PMC11207111, “Assessment of the Activity of Nitroisoxazole Derivatives against Trypanosoma cruzi” (Molecules, 2024).

How the values were obtained:
[1] = Cyclic voltammetry (reduction of the nitro group); type: physicochemical; design: key to −EpcI / −EpcII / −EpaII / −EpaI: potentials in V vs Ag/AgCl; |ΔEp|: unit not given here
Description: The chemistry mechanism of reduction in nitroisoxazole derivatives was investigated using cyclic voltammetry.
The peak near −1.32 V corresponds to a quasi-reversible one-electron transfer, according to the criteria of Nicholson–Shain [26] (Table 1), attributable to the species −NO2/NO2.− . The latter species stable anion radical at room temperature. […] An irreversible peak at −0.93 V to the mono-electronic transfer −HNO2/HNO2.− is observed, coupled with a chemical reaction associated with […] of the formed radical. This was evidenced by the addition of NaOH (1 M), which caused a decrease in the Ic peak (Figure 2c).
As previously described, an irreversible signal assigned to hydroxylamine oxidation to a nitroso derivative is also observed for N-acylhydrazones organometallic compounds with a pendant 5-nitrofuryl group. […] Compound 7, which has the least negative reduction potential, can be attributed to introducing a nitro group in the para position of the nitroisoxazole ring. This effect can also be observed in derivatives containing halogens in the same position.
Electrochemical characterization of the new compounds was performed through cyclic voltammetry (CV) on a 693 VA Metrohm instrument (Tokyo, Japan) equipped with a 694 VA Stand converter and 693 VA processor. Potentials were recorded against the Ag/AgCl reference electrode; a hanging drop of mercury (HDME) was used as a working electrode, and platinum was used as an auxiliary electrode. Tetrabutylammonium perchlorate (TBAP, 0.1 M) in DMSO was used as a supporting electrolyte under an N2 atmosphere at room temperature. Using Nicholson´s procedure, the Ipa/Ipc values (RNO2/RNO2^−) were measured from each cyclic voltammogram with a scan rate between 0.1 and 2.5 V/s.

[2] = ORAC-FL antioxidant capacity; settings: relative to Trolox; phosphate buffer 75 mM, pH 7.4, 37 °C
Procedure: To corroborate the generation of the nitro radical, the antioxidant capacity of the series under study was determined by ORAC-FL methodology, employing a fluorescent probe to capture oxygen-centered radicals (Table 2). The ORAC-FL values of the studied compounds are close to the reference value of Trolox, indicating a low antioxidant capacity. For compounds (1-3), the presence of amino substituents decreases antioxidant activity due to their […] characteristics, preventing the presence of labile hydrogens. […] Compounds 4 and 10 present similar ORAC indexes as aromatic rings with high electron density insert the transfer of labile protons. Antioxidant capacity was determined using the ORAC-fluorescence methodology (ORAC-FL). The analysis used a 96-well white polystyrene plate reader (EnSpire multimode PerkinElmer, Waltham, MA, USA). The reaction was carried out in phosphate buffer (75 mM, pH 7.4). […] A blank with FL and AAPH, using dimethyl sulfoxide instead of the antioxidant solution, was used in each assay. […] The inhibitor capacity was expressed as ORAC-FL values and quantified by integrating the area under the curve (AUCNET). All reaction mixtures were prepared in triplicate, and at least three independent assays were performed for each sample. The area under the fluorescence decay curve (AUC) was calculated by integrating the fluorescence decay where F0 is the initial fluorescence read at 0 min, and F is the fluorescence read at the time. The AUCNET corresponding to the sample was calculated by subtracting the AUC corresponding to the blank. Data were processed using Origin […].5 SR2 (San Francisco, CA, USA). The ORAC-FL indices were calculated according to the following Equation (1): (1) ORAC-[…]]

[3] = system: epimastigote of T. cruzi Dm28; experiment: Trypanocidal activity (MTT) on epimastigotes; type: cell-based; settings: Trypanosoma cruzi; for killing at 100 µM: 24 h, n.a = not active, read-out: % T. cruzi Epimastigote (trypanocidal effect); for IC50: T. cruzi Dm28, 24 h, read-out: IC50 T. cruzi E (epimastigote)
Procedure: As a preliminary step, a study of nitroisoxazole derivatives on the epimastigote form of T. cruzi was performed. Despite the epimastigote form not being a clinical form present in mammals, its easy handling has allowed screening for the trypanocidal activity of various compounds. It is worth noting that, during the intracellular life cycle of the parasite, a form similar to the epimastigote, which is biochemically and morphologically identical to the form present in the vector, has been described. […] RPMI 1640 medium) for 24 h. […] The effects of the compounds on trypomastigote and Vero cell viability were evaluated by tetrazolium salt reduction assay (MTT). […] The plates were kept overnight at 37 °C (28 °C for epimastigotes), and the optical density (OD) was determined using a 96-well microplate reader (Vantaa, Finland) at 570 nm. Under these conditions, the OD is directly proportional to each well’s viable number of cells. The experiments were performed in triplicate across three different assays.

[4] = system: trypomastigote of T. cruzi Dm28; experiment: Trypanocidal activity (MTT) on trypomastigotes; type: cell-based; settings: Trypanosoma cruzi; for killing at 100 µM: 24 h, n.a = not active, read-out: % T. cruzi Trypomastigote (trypanocidal effect); for IC50: T. cruzi Dm28, 24 h
Procedure: As a preliminary step, a study of nitroisoxazole derivatives on the epimastigote form of T. cruzi was performed. Despite the epimastigote form not being a clinical form present in mammals, its easy handling has allowed screening for the trypanocidal activity of various compounds. It is worth noting that, during the intracellular life cycle of the parasite, a form similar to the epimastigote, which is biochemically and morphologically identical to the form present in the vector, has been described. […] This is consistent with studies by Fonseca-Berzal et al. […] Additionally, compounds with higher activity have aromatic rings as substituents for nitroisoxazoles, confirming what was described Do […] [40]. […] It has also been determined that the presence of an isoxazole is essential for activity, as its aromatic structure contains a weak nitrogen-oxygen bond that, under different reaction conditions, can undergo ring cleavage, increasing activity. The results obtained on epimastigotes cannot be conclusive for determining potential Chagas agents, so conducting studies on the infective, extracellular, non-replicative trypomastigote form of T. cruzi present in humans is essential. […] RPMI 1640 medium) for 24 h. […] The effects of the compounds on trypomastigote and Vero cell viability were evaluated by tetrazolium salt reduction assay (MTT). […] The plates were kept overnight at 37 °C (28 °C for epimastigotes), and the optical density (OD) was determined using a 96-well microplate reader (Vantaa, Finland) at 570 nm. Under these conditions, the OD is directly proportional to each well's viable number of cells. The experiments were performed in triplicate across three different assays.

Vero mammalian cells = experiment: Cytotoxicity (MTT) on Vero cells; type: cell-based; settings: Chlorocebus sabaeus, 24 h
Procedure: Additionally, the cytotoxicity of the compounds on VERO mammalian cells was assessed (Table 4). […] It is observed that the majority of the derivatives present considerable cytotoxicity. […] RPMI 1640 medium) for 24 h. […] The effects of the compounds on trypomastigote and Vero cell viability were evaluated by tetrazolium salt reduction assay (MTT). […] The plates were kept overnight at 37 °C (28 °C for epimastigotes), and the optical density (OD) was determined using a 96-well microplate reader (Vantaa, Finland) at 570 nm. Under these conditions, the OD is directly proportional to each well’s viable number of cells. The experiments were performed in triplicate across three different assays.

T. cruzi trypomastigotes = experiment: Generation of ROS (DCFH2-DA fluorescent probe); type: cell-based, Trypanosoma cruzi; settings: 100 µM; for ROS generation (DCF fluorescence intensity): 40 min, vs control without compound
Procedure: To generate radical species on T. cruzi trypomastigotes, intracellular free radicals were determined using the fluorescent probe dichlorofluorescein (DCF).
The cultures were incubated with a 20 µM DCFH2-DA solution for 15 min at 28 °C. Then, they were centrifuged at 3500 rpm and washed 2 times with phosphate buffer saline (PBS) pH 7.4. Cells loaded with DCFH2-DA were transferred to a Nunc® fluorescence 96-well plate (Thermo Fisher Scientific Inc., Waltham, MA, USA), where the nitroisoxazoles derivates were added at 100 µM. Fluorescence (exi: 488 nm, emi: 528 nm) was recorded for 40 min in a BioTek (Winooski, VT, USA) Synergy HT spectrofluorometer. The area under increase curves over time was determined using Oring 8 software, with areas normalized to control. Results are the means ± SD of three independent experiments.

[5] = cyclic voltammetry at 2.0 V/s, DMSO, 0.1 M TBAP, vs Ag/AgCl

Ipa/Ipc ([1]; cyclic voltammetry at 2.0 V/s)	|ΔEp| ([1]; cyclic voltammetry at 2.0 V/s)	−EpaII [1, 5]	−EpcI [1, 5]	−EpcII [1, 5]	irreversible peak potential, mono-electronic transfer −HNO2/HNO2.− ([1]; cyclic voltammogram, Figure 2b)	melting point	−EpaI [1, 5]	IIIc couple potential (formation of a hydroxylamine derivative) ([1]; cyclic voltammogram, Figure 2d)	SMILES	ORAC-FL Index [2]	killing at 100 µM [3]	IC50 [3]	killing at 100 µM [4]	IC50 [4]	IC50 (Vero mammalian cells)	ROS generation (DCF fluorescence intensity) (T. cruzi trypomastigotes)	ROS generation compared with Nfx (T. cruzi trypomastigotes; Figure 3)
−0.34	150	1.02	0.93	1.17	−0.93 V	270 °C (dec.)			Cc1noc(/C=C/c2ccc(O)c(O)c2)c1[N+](=O)[O-] [Compound 8, (E)-4-(2-(3-Methyl-4-nitroisoxazol-5-yl)vinyl)benzene-1,2-diol]	1.0 ± 0.1	32 ± 5%	> 400 µM	16 ± 2%	> 400 µM	398.1 ± 0.3 µM	did not show ROS generation	
			0.78	1.41		174 to 177 °C			Cc1noc(/C=C/c2cccc(Br)c2)c1[N+](=O)[O-] [Compound 16, (E)-5-(3-Bromostyryl)-3-methyl-4-nitroisoxazole]	0.54 ± 0.07	19 ± 3%	> 400 µM	22 ± 6%	> 400 µM	141 ± 4 µM	did not show ROS generation	
−0.36	90	0.87		0.96		196 to 199 °C			Cc1noc(/C=C/c2cn(-c3ccccc3)c3ccccc23)c1[N+](=O)[O-] [Compound 12, (E)-3-Methyl-4-nitro-5-(2-(1-phenyl-1H-indol-3-yl)vinyl)isoxazole]	0.4 ± 0.1	5 ± 2%	> 400 µM	16 ± 2%	> 400 µM	141 ± 6 µM	did not show ROS generation	
−0.02	110	0.71		0.82		169 to 171 °C			Cc1noc(/C=C/c2ccc(F)cc2)c1[N+](=O)[O-] [Compound 5, (E)-5-(4-Fluorostyryl)-3-methyl-4-nitroisoxazole]	0.74 ± 0.05	47 ± 1%	400 ± 3 µM	19 ± 3%	> 400 µM	> 400 µM	increase in fluorescence intensity	more reactive oxygen species (ROS) than Nfx
									CC1CS(=O)(=O)CCN1/N=C/c1ccc([N+](=O)[O-])o1 (stereo not shown) [Nfx, nifurtimox, reference compound]		98.9 ± 0.3%		74 ± 1%	10.04 ± 0.1 µM	172.9 ± 0.1 µM		
−0.17	160	1.07	0.66	0.91		189 to 191 °C	0.82	−1.14 V	COc1cc(/C=C/c2onc(C)c2[N+](=O)[O-])ccc1O [Compound 9, (E)-2-Methoxy-4-(2-(3-methyl-4-nitroisoxazol-5-yl)vinyl)phenol]	0.7 ± 0.2	52 ± 4%	166 ± 4 µM	15 ± 3%	400 ± 2 µM	244.5 ± 0.5 µM	did not show ROS generation	
			0.79	1.21		224 to 226 °C			CCN(CC)c1ccc2cc(/C=C/c3onc(C)c3[N+](=O)[O-])c(=O)oc2c1 [Compound 11, (E)-7-(Diethylamino)-3-(2-(3-methyl-4-nitroisoxazol-5-yl)vinyl)-2H-chromen-2-one]	0.21 ± 0.01		> 400 µM	10 ± 4%	400 ± 5 µM	125.9 ± 0.1 µM	increase in fluorescence intensity	
−0.09	90	0.80		0.89		176 to 178 °C			Cc1noc(/C=C/c2ccccc2)c1[N+](=O)[O-] [Compound 4, (E)-3-Methyl-4-nitro-5-styrylisoxazole]	0.33 ± 0.06	47 ± 4%		0%				
−0.32	120	0.84	0.72	0.96		208 to 211 °C			Cc1ccc(-n2cc(/C=C/c3onc(C)c3[N+](=O)[O-])c3ccccc32)cc1 [Compound 14, (E)-3-Methyl-4-nitro-5-(2-(1-(p-tolyl)-1H-indol-3-yl)vinyl)isoxazole]	0.4 ± 0.1	27 ± 2%		3 ± 1%				
